# Patent US10016439B2, “Fused imidazole compounds” (ONO PHARMACEUTICAL CO., LTD., priority 2014, dated 2018)
# pKi: −log10 of the molar value.
# Tests used:
# GABAA α5/β3/γ2 [1] = biological target: T1, GABAA α5/β3/γ2 (Homo sapiens (Human), UniProt P18507+P31644); experiment: Functional assay (PatchXpress automated patch-clamp), α5 subtype; format: cell-based; settings: % change of GABA EC20 response; compound 1 μM; HEK293 cells
# From the text: (§1) GABAA α5/β3/γ2 HEK293 cell line was used throughout the functional assay in PatchXpress (Molecular Devices), the automated patch-clamp system. Cells stably expressing the appropriate GABAA subtype (α5/β3/γ2, α1/β3/γ2, α2/β3/γ2 or α3/β3/γ2) were dissociated from poly-D-lysine treated tissue culture flasks using a mixture of one part TrypLE (Invitrogen, cat #12604): one part Dulbecco's Phosphate Buffered Saline (Invitrogen, cat #14190). The dissociated cells were re-suspended in growth media (D-MEM/F-12 media (Invitrogen, cat #11320) supplemented with 10% (v/v) Foetal Bovine Serum (Invitrogen, cat #10082) and 1% (v/v) non-essential amino acids (Invitrogen, cat #11140)) and allowed to recover for one hour at 37° C. in a humidified incubator with 5% CO2. At the end of the recovery period cells were centrifuged at 1,000 rpm for two minutes and the resulting pellet re-suspended in external solution (in mM; 137 NaCl, 4 KCl, 10 HEPES, 1.8 CaCl2, 1 MgCl2, 10 glucose, pH set to 7.35 with NaOH). Cells were counted and diluted to 2.5×10^6/ml in external solution. The patch-clamp assay protocol involved determination of current amplitude with control applications of GABA EC20 containing concentration-matched DMSO (0.3% v/v), then pre-incubation of the test compound for one minute prior to the addition of the same compound diluted with the GABA EC20. Compound and/or GABA was applied for five seconds, with two minute wash periods between applications. No wash period was present at the end of the compound pre-application stage. The internal solution comprised (in mM) 90 KCl, 50 KF, 11 EGTA, 10 HEPES, 1 MgCl2, 2 Mg-ATP, the pH was set to 7.35 with KOH and the holding potential was −60 mV. Compounds were assayed at a concentration of 1 μM.
# GABAA α5/β3/γ2 [2] = biological target: T1, GABAA α5/β3/γ2; experiment: Binding assay (Scintillation Proximity Assay, [3H]-Ro15-1788); settings: membranes of HEK293 cells expressing GABAA α5/β3/γ2
# Experimental: The GABAAα5/β3/γ2 protein used for the Scintillation Proximity Assay was derived from membranes produced from HEK293 GABAA α5/β3/γ2 expressing HEK293 cell line. HEK293 GABAA α5/β3/γ2 expressing HEK293 cell line was cultured, then harvested and centrifuged the cells. Membranes were produced by homogenization of the cell pellet with a tissue homogenizer. The resulting homogenate was centrifuged at 48,000 g for 30 minutes, re-suspended and washed twice with 10 mM potassium phosphate buffer, pH 7.4. Final resuspension of membranes took place in buffer containing 10 mM potassium phosphate and 100 mM KCl.
# For assay, test compound (50×) was added 0.5 μl per well to a white-walled clear-bottomed 384-well plate.
# Full signal controls were prepared by the addition of 0.5 μl of DMSO to the appropriate wells. Mixture of 10 μl of protein and 10 μl of PVT-WGA beads (0.2 mg/well) were added to the plate. Both protein and bead were diluted to the desired concentration with 10 mM potassium phosphate, pH 7.4, containing 100 mM KCl. The plate was pre-incubated for 30 minutes at room temperature with shaking before initiation of the reaction by the addition of radioligand. 5 μl of [^3H]-Ro15-1788 was added at a concentration of 30 nM (5×) and the plates sealed. The reaction mix was incubated at room temperature overnight with gentle agitation on a plate shaker. The final DMSO concentration for all phases of the screening was 2% (v/v). At the end of the overnight incubation, the plates were centrifuged for two minutes at 1,000 rpm prior to reading on a Perkin Elmer Microbeta.
# Concentration-response testing was performed in duplicate and the percent effect calculated for each replicate data point. The raw data was entered in Activity Base and the curves were fitted to the mean data using Excel and XL Fit, and shown as Ki.
# GABAA α1/β3/γ2 = GABAA α1/β3/γ2 (Homo sapiens (Human), UniProt P14867+P18507); experiment: Functional assay (PatchXpress automated patch-clamp), α1 subtype; format: cell-based; settings: % change of GABA EC20 response; compound 1 μM; HEK293 cells
# From the text: as §1
# [3] = Cryopreserved hepatocyte stability; format: in vitro ADME; settings: human hepatocytes 0.5 million cells/mL, 1 μM, 37° C.; compound remaining; time point not stated
# Experimental: Hepatocyte stability assays were performed using pooled human cryopreserved hepatocytes. Test and control compounds (testosterone, midazolam, 4-methylumbelliferone), prepared in DMSO, were incubated at an initial concentration of 1 μM (0.25% DMSO final, n=2) with hepatocytes at cell densities of 0.5 million cells/mL for both species at 37° C. Aliquots were removed at 0, 10, 20, 45 and 90 minutes for termination of reactions and compound extraction with acetonitrile containing an analytical internal standard. Samples were centrifuged and the supernatant fractions analysed for parent compound by mass spectrometry (LC-MS/MS).
# (§2) The amount of compound remaining (expressed as %) was determined from the MS response in each sample relative to that in the T=0 samples (normalised for internal standard).
# Ln plots of the % remaining were used to determine the half-life for compound disappearance using the relationship: t½(min)=−0.693/λ where λ is the slope of the Ln % remaining vs time curve. Hepatic Microsomal Stability: Half-life/Intrinsic Clearance Format
# [4] = Hepatic microsomal stability; format: in vitro ADME; settings: human microsomes 0.5 mg protein/mL, NADPH, 1 μM, 37° C.; compound remaining; time point not stated
# Experimental: Microsomal stability assays were performed using pooled hepatic microsomes from human. Test and control compounds (propranolol or dextromethorphan, midazolam), prepared in DMSO, were incubated at an initial concentration of 1 μM (0.25% DMSO final, n=2) with microsomes (0.5 mg protein/mL) at 37° C. in the presence of the cofactor, NADPH (1 mM). Aliquots were removed at 0, 5, 10, 20 and 40 minutes for termination of reactions and compound extraction with acetonitrile containing an analytical internal standard. Samples were centrifuged and the supernatant fractions analysed for parent compound by mass spectrometry (LC-MS/MS).
# as §2
# Ln plots of the % remaining were used to determine the half-life for compound disappearance using the relationship: t½(min)=−0.693/λ where λ is the slope of the Ln % remaining vs time curve.
# GABAA α1/β3/γ2, sequence (P14867 28-456): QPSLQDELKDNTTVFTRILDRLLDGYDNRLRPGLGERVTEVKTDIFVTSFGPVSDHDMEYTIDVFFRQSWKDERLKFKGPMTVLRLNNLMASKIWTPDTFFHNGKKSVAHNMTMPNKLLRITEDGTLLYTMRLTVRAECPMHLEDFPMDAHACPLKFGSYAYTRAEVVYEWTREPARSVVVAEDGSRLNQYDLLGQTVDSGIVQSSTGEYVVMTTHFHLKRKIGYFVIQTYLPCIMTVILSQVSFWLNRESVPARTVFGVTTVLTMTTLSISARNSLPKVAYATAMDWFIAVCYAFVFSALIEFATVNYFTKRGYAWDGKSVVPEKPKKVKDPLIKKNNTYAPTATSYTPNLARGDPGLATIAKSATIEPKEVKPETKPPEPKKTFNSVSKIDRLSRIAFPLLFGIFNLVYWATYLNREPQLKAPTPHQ
# GABAA α1/β3/γ2, sequence (P28472 26-473 partner): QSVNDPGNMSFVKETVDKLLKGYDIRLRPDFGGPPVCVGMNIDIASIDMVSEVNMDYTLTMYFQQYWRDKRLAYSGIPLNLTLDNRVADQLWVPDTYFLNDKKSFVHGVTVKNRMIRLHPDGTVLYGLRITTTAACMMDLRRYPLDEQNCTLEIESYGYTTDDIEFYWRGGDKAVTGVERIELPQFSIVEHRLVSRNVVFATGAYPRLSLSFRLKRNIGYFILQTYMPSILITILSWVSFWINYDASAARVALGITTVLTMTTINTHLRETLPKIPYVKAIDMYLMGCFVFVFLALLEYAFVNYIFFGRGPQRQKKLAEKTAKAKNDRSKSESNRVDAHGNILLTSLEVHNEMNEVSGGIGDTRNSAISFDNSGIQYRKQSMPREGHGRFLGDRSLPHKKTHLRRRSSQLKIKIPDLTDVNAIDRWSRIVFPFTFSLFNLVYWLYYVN
# GABAA α1/β3/γ2, sequence (P18507 40-475): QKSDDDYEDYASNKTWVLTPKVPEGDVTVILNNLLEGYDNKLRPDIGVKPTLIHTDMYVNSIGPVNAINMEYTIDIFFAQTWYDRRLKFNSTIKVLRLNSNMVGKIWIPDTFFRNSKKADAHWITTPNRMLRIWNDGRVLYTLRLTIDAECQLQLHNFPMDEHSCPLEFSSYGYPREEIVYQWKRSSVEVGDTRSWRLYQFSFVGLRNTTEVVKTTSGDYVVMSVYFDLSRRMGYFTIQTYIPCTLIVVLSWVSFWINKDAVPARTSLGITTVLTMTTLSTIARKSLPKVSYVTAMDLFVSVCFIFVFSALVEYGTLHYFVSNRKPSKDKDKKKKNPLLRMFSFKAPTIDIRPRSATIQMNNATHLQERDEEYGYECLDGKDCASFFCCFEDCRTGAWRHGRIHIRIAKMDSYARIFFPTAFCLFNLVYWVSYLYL
# T1 sequence (P31644 32-462): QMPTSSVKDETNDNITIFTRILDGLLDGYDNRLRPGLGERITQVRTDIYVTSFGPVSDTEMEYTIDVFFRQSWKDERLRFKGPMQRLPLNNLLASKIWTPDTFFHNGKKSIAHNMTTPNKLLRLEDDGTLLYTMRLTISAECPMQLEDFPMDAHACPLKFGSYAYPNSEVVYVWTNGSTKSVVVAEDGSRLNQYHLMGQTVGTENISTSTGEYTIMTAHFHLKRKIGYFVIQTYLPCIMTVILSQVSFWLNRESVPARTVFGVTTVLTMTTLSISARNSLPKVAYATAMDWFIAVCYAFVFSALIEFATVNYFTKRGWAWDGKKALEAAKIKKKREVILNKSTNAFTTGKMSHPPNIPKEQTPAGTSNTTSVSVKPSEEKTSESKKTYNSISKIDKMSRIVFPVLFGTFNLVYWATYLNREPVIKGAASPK
# T1 sequence (P28472 26-473 partner): as the sequence (P28472 26-473 partner) above
# T1 sequence (P18507 40-475): as the sequence (P18507 40-475) above
SMILES,inhibition at 1 µM (GABAA α5/β3/γ2 [1]),pKi (GABAA α5/β3/γ2 [2]),inhibition at 1 µM (GABAA α1/β3/γ2),hepatocyte stability (%) [3],microsomal stability (%) [4]
"O=C1COc2cc(Nc3cc4c(cn3)ncn4CC3CC3)ccc2N1C1CC1 [Example 37, 4-Cyclopropyl-7-((1-(cyclopropylmethyl)-1H-imidazo[4,5-c]pyridin-6-yl)amino)-2H-benzo[b][1,4]oxazin-3(4H)-one]",46%,7.41,-5%,,
"CN1C(=O)COc2cc(Nc3cnc4ncn(CC5CC5)c4n3)ccc21 [Example 42, 7-((1-(Cyclopropylmethyl)-1H-imidazo[4,5-b]pyrazin-6-yl)amino)-4-methyl-2H-benzo[b][1,4]oxazin-3(4H)-one]",55.9%,7.62,0.2%,,
"Cn1c(=O)oc2cc(Nc3cnc4ncn(CC5CC5)c4n3)ccc21 [Example 43, 6-((1-(Cyclopropylmethyl)-1H-imidazo[4,5-b]pyrazin-6-yl)amino)-3-methylbenzo[d]oxazol-2(3H)-one]",55.1%,7.38,8%,,
"COCCN1C(=O)COc2cc(Nc3ncc4ncn(CC5CC5)c4n3)ccc21 [Example 46, 7-((9-(Cyclopropylmethyl)-9H-purin-2-yl)amino)-4-(2-methoxyethyl)-2H-benzo[b][1,4]oxazin-3(4H)-one]",42.4%,7.42,-0.9%,,
"CN1C(=O)COc2cc(Nc3cc4c(cc3F)ncn4CC3CC(F)(F)C3)cnc21 [Example 52, 7-((1-((3,3-Difluorocyclobutyl)methyl)-5-fluoro-1H-benzo[d]imidazol-6-yl)amino)-4-methyl-2H-pyrido[3,2-b][1,4]oxazin-3(4H)-one]",41.8%,8.17,7.5%,,
"CN1C(=O)COc2cc(Nc3cc4c(cc3F)ncn4CCC3CC3)cnc21 [Example 67, 7-((1-(2-Cyclopropylethyl)-5-fluoro-1H-benzo[d]imidazol-6-yl)amino)-4-methyl-2H-pyrido[3,2-b][1,4]oxazin-3(4H)-one]",52.5%,8.39,-0.5%,,
"Cc1c(F)c(Nc2cc3c(cn2)N(C)C(=O)CO3)cc2c1ncn2CC1CC1 [Example 87, 7-((1-(Cyclopropylmethyl)-5-fluoro-4-methyl-1H-benzo[d]imidazol-6-yl)amino)-4-methyl-2H-pyrido[4,3-b][1,4]oxazin-3(4H)-one]",,,,103%,76%
"Cc1c(F)c(Nc2ccc(-n3ccnc3)nc2)cc2c1ncn2CC1CC1 [Example 88, N-(6-(1H-Imidazol-1-yl)pyridin-3-yl)-1-(cyclopropylmethyl)-5-fluoro-4-methyl-1H-benzo[d]imidazol-6-amine]",,,,81%,95%
"Fc1cc(Nc2cc3c(ncn3CC3CC3)c(F)c2F)ccc1-n1ccnc1 [Example 95, 1-(Cyclopropylmethyl)-4,5-difluoro-N-(3-fluoro-4-(1H-imidazol-1-yl)phenyl)-1H-benzo[d]imidazol-6-amine]",,,,96%,89%
"CN1C(=O)COc2ncc(Nc3ccc4ncn(CC5CC5)c4n3)cc21 [Example 111, 7-((3-(Cyclopropylmethyl)-3H-imidazo[4,5-b]pyridin-5-yl)amino)-1-methyl-1H-pyrido[2,3-b][1,4]oxazin-2(3H)-one]",44.4%,7.46,-0.3%,,
"Cc1nc(Nc2cnc3c(c2)OCC(=O)N3C)cc2c1ncn2CC1CC1 [Example 120, 7-((1-(Cyclopropylmethyl)-4-methyl-1H-imidazo[4,5-c]pyridin-6-yl)amino)-4-methyl-2H-pyrido[3,2-b][1,4]oxazin-3(4H)-one]",,,,85%,94%
"Cc1nc(Nc2ccc3c(n2)OCC(=O)N3C)cc2c1ncn2CC1CC1 [Example 124, 6-((1-(Cyclopropylmethyl)-4-methyl-1H-imidazo[4,5-c]pyridin-6-yl)amino)-1-methyl-1H-pyrido[2,3-b][1,4]oxazin-2(3H)-one]",,,,75%,72%
"CN1C(=O)COc2nc(Nc3cc(C(F)(F)F)c4ncn(CC5CC5)c4n3)ccc21 [Example 151, 6-((3-(Cyclopropylmethyl)-7-(trifluoromethyl)-3H-imidazo[4,5-b]pyridin-5-yl)amino)-1-methyl-1H-pyrido[2,3-b][1,4]oxazin-2(3H)-one]",,,,101%,77%
"Cc1cc(Nc2ccc3c(n2)OCC(=O)N3C)nc2c1ncn2CC1CC1 [Example 159, 6-((3-(Cyclopropylmethyl)-7-methyl-3H-imidazo[4,5-b]pyridin-5-yl)amino)-1-methyl-1H-pyrido[2,3-b][1,4]oxazin-2(3H)-one]",46.7%,8.19,4.8%,,
